Laboratory results from paper PMC9090415, “Discovery of small molecule inhibitors of Plasmodium falciparum apicoplast DNA polymerase” (Journal of Enzyme Inhibition and Medicinal Chemistry, 2022).

Molecular target: P. falciparum apicoplast DNA polymerase (Pf-apPOL) (Plasmodium falciparum, UniProt Q8ILY1)
Test: Fluorescence-based high-throughput DNA polymerase assay (molecular beacon), primary screen and dose-response
Format: biochemical
Settings: for DNA Pol: 90 min, 10 µM
Method in brief: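 Single-point screening used 10 µM compound with 20 nM polymerase, 20 nM hairpin substrate and 6 µM dNTPs for 90 min at 25 °C. Confirmatory titrations (2.5–80 µM) followed fluorescence at three times, and IC50 was derived from a fit including a cooperativity term n.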

[1] = primary screen value of the 186 hits, unit not given

Sequence of P. falciparum apicoplast DNA polymerase (Pf-apPOL) (Q8ILY1 entry or part of it): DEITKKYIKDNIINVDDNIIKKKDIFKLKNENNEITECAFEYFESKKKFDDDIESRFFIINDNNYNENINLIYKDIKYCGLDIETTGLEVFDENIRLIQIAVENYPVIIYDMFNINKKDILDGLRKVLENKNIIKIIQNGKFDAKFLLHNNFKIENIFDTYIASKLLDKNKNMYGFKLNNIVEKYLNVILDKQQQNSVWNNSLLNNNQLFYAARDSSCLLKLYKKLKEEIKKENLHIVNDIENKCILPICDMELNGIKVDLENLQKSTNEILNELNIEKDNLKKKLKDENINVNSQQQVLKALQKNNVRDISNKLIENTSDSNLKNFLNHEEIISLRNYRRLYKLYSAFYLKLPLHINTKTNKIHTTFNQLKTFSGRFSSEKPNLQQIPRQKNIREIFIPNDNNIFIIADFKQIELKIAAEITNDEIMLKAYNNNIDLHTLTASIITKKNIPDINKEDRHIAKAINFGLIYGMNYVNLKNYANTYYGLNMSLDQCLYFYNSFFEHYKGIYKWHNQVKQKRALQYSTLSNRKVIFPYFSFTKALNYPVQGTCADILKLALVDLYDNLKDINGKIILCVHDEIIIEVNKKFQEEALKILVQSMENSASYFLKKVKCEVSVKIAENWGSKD

With `COc1cc(Cl)c(C)cc1NC(=O)Cn1ccc2c(=O)[nH]ccc21` [Molecule 33, COc1cc(Cl)c(cc1NC(=O)Cn1ccc2c1cc[nH]c2=O)C] the “% inhibition Apo pol 10'” value (DRC-1, concentration 2.5) was 1.493%, the “% inhibition Apo pol 10'” value (DRC-1, concentration 5) was 13.6047% and the “% inhibition Apo pol 10'” value (DRC-1, concentration 10) was 50.6447%. For the same compound, the “% inhibition Apo pol 10'” value (DRC-1, concentration 20) was 68.9678%, the “% inhibition Apo pol 10'” value (DRC-1, concentration 40) was 82.7027% and the “% inhibition Apo pol 10'” value (DRC-1, concentration 80) was 78.8716%. The “% inhibition Apol 90'” value (DRC-1, 90', concentration 2.5) was -1.924%, the “% inhibition Apol 90'” value (DRC-1, 90', concentration 5) was 4.488% and the “% inhibition Apol 90'” value (DRC-1, 90', concentration 10) was 37.9384%. The “% inhibition Apol 90'” value (DRC-1, 90', concentration 20) was 62.017%, the “% inhibition Apol 90'” value (DRC-1, 90', concentration 40) was 81.936% and the “% inhibition Apol 90'” value (DRC-1, 90', concentration 80) was 83.5925%. For the same compound, the “% inhibition apPOL 180'” value (DRC-1, 180', concentration 2.5) was -6.054%, the “% inhibition apPOL 180'” value (DRC-1, 180', concentration 5) was -2.934% and the “% inhibition apPOL 180'” value (DRC-1, 180', concentration 10) was 23.1917%. For the same compound, the “% inhibition apPOL 180'” value (DRC-1, 180', concentration 20) was 50.4837%, the “% inhibition apPOL 180'” value (DRC-1, 180', concentration 40) was 76.46% and the “% inhibition apPOL 180'” value (DRC-1, 180', concentration 80) was 83.9917%. The “% inhibition Apo pol 5'” value (DRC-2, 5', concentration 2.5) was -0.547%, the “% inhibition Apo pol 5'” value (DRC-2, 5', concentration 5) was 14% and the “% inhibition Apo pol 5'” value (DRC-2, 5', concentration 10) was 36%. The “% inhibition Apo pol 5'” value (DRC-2, 5', concentration 20) was 42%, the “% inhibition Apo pol 5'” value (DRC-2, 5', concentration 40) was 40% and the “% inhibition Apo pol 5'” value (DRC-2, 5', concentration 80) was 31%. For the same compound, the “% inhibition Apol 40'” value (DRC-2, 40', concentration 2.5) was -1.56%, the “% inhibition Apol 40'” value (DRC-2, 40', concentration 5) was 18% and the “% inhibition Apol 40'” value (DRC-2, 40', concentration 10) was 46%. For the same compound, the “% inhibition Apol 40'” value (DRC-2, 40', concentration 20) was 60%, the “% inhibition Apol 40'” value (DRC-2, 40', concentration 40) was 62% and the “% inhibition Apol 40'” value (DRC-2, 40', concentration 80) was 57%. The “% inhibition ApPOL 90'” value (DRC-2, 90', concentration 2.5) was -2%, the “% inhibition ApPOL 90'” value (DRC-2, 90', concentration 5) was 15% and the “% inhibition ApPOL 90'” value (DRC-2, 90', concentration 10) was 45%. The “% inhibition ApPOL 90'” value (DRC-2, 90', concentration 20) was 61%, the “% inhibition ApPOL 90'” value (DRC-2, 90', concentration 40) was 65% and the “% inhibition ApPOL 90'” value (DRC-2, 90', concentration 80) was 63%. The “% inhibition apPOL 180'” value (DRC-2, 180', concentration 2.5) was -9%, the “% inhibition apPOL 180'” value (DRC-2, 180', concentration 5) was 6.65% and the “% inhibition apPOL 180'” value (DRC-2, 180', concentration 10) was 35%. The “% inhibition apPOL 180'” value (DRC-2, 180', concentration 20) was 56%, the “% inhibition apPOL 180'” value (DRC-2, 180', concentration 40) was 67% and the “% inhibition apPOL 180'” value (DRC-2, 180', concentration 80) was 68%. For the same compound, the “DNA Pol” value (primary screen value by plate and well) was 43 and the “DNA Pol” value [1] was 43.
With `O=C(Cn1ccc2c(=O)[nH]ccc21)Nc1ccc(Cl)cc1` [Molecule 36, O=C(Cn1ccc2c1cc[nH]c2=O)Nc1ccc(cc1)Cl] the “% inhibition Apo pol 10'” value (DRC-1, concentration 2.5) was 6.801%, the “% inhibition Apo pol 10'” value (DRC-1, concentration 5) was 22.3776% and the “% inhibition Apo pol 10'” value (DRC-1, concentration 10) was 24.792%. The “% inhibition Apo pol 10'” value (DRC-1, concentration 20) was 79.2996%, the “% inhibition Apo pol 10'” value (DRC-1, concentration 40) was 82.0585% and the “% inhibition Apo pol 10'” value (DRC-1, concentration 80) was 79.648%. For the same compound, the “% inhibition Apol 90'” value (DRC-1, 90', concentration 2.5) was -0.4643%, the “% inhibition Apol 90'” value (DRC-1, 90', concentration 5) was 11.3565% and the “% inhibition Apol 90'” value (DRC-1, 90', concentration 10) was 14.0157%. The “% inhibition Apol 90'” value (DRC-1, 90', concentration 20) was 73.6159%, the “% inhibition Apol 90'” value (DRC-1, 90', concentration 40) was 79.7069% and the “% inhibition Apol 90'” value (DRC-1, 90', concentration 80) was 82.9478%. The “% inhibition apPOL 180'” value (DRC-1, 180', concentration 2.5) was -6.005%, the “% inhibition apPOL 180'” value (DRC-1, 180', concentration 5) was 0.9781% and the “% inhibition apPOL 180'” value (DRC-1, 180', concentration 10) was 3.9308%. The “% inhibition apPOL 180'” value (DRC-1, 180', concentration 20) was 61.1275%, the “% inhibition apPOL 180'” value (DRC-1, 180', concentration 40) was 73.0225% and the “% inhibition apPOL 180'” value (DRC-1, 180', concentration 80) was 82.2877%. For the same compound, the “% inhibition Apo pol 5'” value (DRC-2, 5', concentration 10 (unit not given)) was 44%, the “% inhibition Apo pol 5'” value (DRC-2, 5', concentration 20 (unit not given)) was 44% and the “% inhibition Apol 40'” value (DRC-2, 40', concentration 10 (unit not given)) was 57%. The “% inhibition Apol 40'” value (DRC-2, 40', concentration 20 (unit not given)) was 63%, the “% inhibition Apol 40'” value (DRC-2, 40', concentration 40 (unit not given)) was 63% and the “% inhibition ApPOL 90'” value (DRC-2, 90', concentration 5 (unit not given)) was 20%. For the same compound, the “% inhibition ApPOL 90'” value (DRC-2, 90', concentration 10 (unit not given)) was 57%, the “% inhibition ApPOL 90'” value (DRC-2, 90', concentration 40 (unit not given)) was 67% and the “% inhibition apPOL 180'” value (DRC-2, 180', concentration 20 (unit not given)) was 63%. For the same compound, the “% inhibition apPOL 180'” value (DRC-2, 180', concentration 80 (unit not given)) was 67%, the “% inhibition Apo pol 5'” value (DRC-2, 5', concentration 2.5) was 0% and the “% inhibition Apo pol 5'” value (DRC-2, 5', concentration 5) was 20%. For the same compound, the “% inhibition Apo pol 5'” value (DRC-2, 5', concentration 5 (unit not given)) was 20%, the “% inhibition Apo pol 5'” value (DRC-2, 5', concentration 10) was 44% and the “% inhibition Apo pol 5'” value (DRC-2, 5', concentration 20) was 44%. For the same compound, the “% inhibition Apo pol 5'” value (DRC-2, 5', concentration 40) was 41%, the “% inhibition Apo pol 5'” value (DRC-2, 5', concentration 80) was 30% and the “% inhibition Apol 40'” value (DRC-2, 40', concentration 2.5) was -0.111%. The “% inhibition Apol 40'” value (DRC-2, 40', concentration 5) was 24%, the “% inhibition Apol 40'” value (DRC-2, 40', concentration 10) was 57% and the “% inhibition Apol 40'” value (DRC-2, 40', concentration 20) was 63%. The “% inhibition Apol 40'” value (DRC-2, 40', concentration 40) was 63%, the “% inhibition Apol 40'” value (DRC-2, 40', concentration 80) was 56% and the “% inhibition ApPOL 90'” value (DRC-2, 90', concentration 2.5) was -2%. The “% inhibition ApPOL 90'” value (DRC-2, 90', concentration 5) was 20%, the “% inhibition ApPOL 90'” value (DRC-2, 90', concentration 10) was 57% and the “% inhibition ApPOL 90'” value (DRC-2, 90', concentration 20) was 66%. For the same compound, the “% inhibition ApPOL 90'” value (DRC-2, 90', concentration 40) was 67%, the “% inhibition ApPOL 90'” value (DRC-2, 90', concentration 80) was 61% and the “% inhibition apPOL 180'” value (DRC-2, 180', concentration 2.5) was -7%. For the same compound, the “% inhibition apPOL 180'” value (DRC-2, 180', concentration 5) was 11%, the “% inhibition apPOL 180'” value (DRC-2, 180', concentration 10) was 48% and the “% inhibition apPOL 180'” value (DRC-2, 180', concentration 20) was 63%. The “% inhibition apPOL 180'” value (DRC-2, 180', concentration 40) was 69%, the “% inhibition apPOL 180'” value (DRC-2, 180', concentration 80) was 67% and the “DNA Pol” value [1] was 46. The “DNA Pol” value (primary screen value, head "DNA Pol", unit not given) was 46.
For `COc1ccccc1C1CC(=O)Oc2cc3c(cc21)OCO3` (centres unmarked) [KU0104502], the “DNA Pol” value ('DNA Pol' of the 186 hits list (screen value)) was 42, the “% inhibition Apo pol 10'” value (DRC-1, conc 2.5) was 16.5835% and the “% inhibition Apo pol 10'” value (DRC-1, conc 5) was 35.5684%. The “% inhibition Apo pol 10'” value (DRC-1, conc 10) was 61.1126%, the “% inhibition Apo pol 10'” value (DRC-1, conc 20) was 76.0203% and the “% inhibition Apo pol 10'” value (DRC-1, conc 40) was 89.9974%. For the same compound, the “% inhibition Apo pol 10'” value (DRC-1, conc 80) was 93.475%, the “% inhibition Apol 90'” value (DRC-1, 90', conc 2.5) was 2.531% and the “% inhibition Apol 90'” value (DRC-1, 90', conc 5) was 13.2862%. The “% inhibition Apol 90'” value (DRC-1, 90', conc 10) was 34.6587%, the “% inhibition Apol 90'” value (DRC-1, 90', conc 20) was 54.2638% and the “% inhibition Apol 90'” value (DRC-1, 90', conc 40) was 81.0345%. For the same compound, the “% inhibition Apol 90'” value (DRC-1, 90', conc 80) was 93.8969%, the “% inhibition apPOL 180'” value (DRC-1, 180', conc 2.5) was -4.384% and the “% inhibition apPOL 180'” value (DRC-1, 180', conc 5) was 1.7201%. For the same compound, the “% inhibition apPOL 180'” value (DRC-1, 180', conc 10) was 18.8078%, the “% inhibition apPOL 180'” value (DRC-1, 180', conc 20) was 38.0211% and the “% inhibition apPOL 180'” value (DRC-1, 180', conc 40) was 74.6782%. The “% inhibition apPOL 180'” value (DRC-1, 180', conc 80) was 93.9211%, the “% inhibition Apo pol 5'” value (DRC-2, 5', conc 2.5) was 10% and the “% inhibition Apo pol 5'” value (DRC-2, 5', conc 5) was 34%. The “% inhibition Apo pol 5'” value (DRC-2, 5', conc 10) was 50%, the “% inhibition Apo pol 5'” value (DRC-2, 5', conc 20) was 59% and the “% inhibition Apo pol 5'” value (DRC-2, 5', conc 40) was 65%. For the same compound, the “% inhibition Apo pol 5'” value (DRC-2, 5', conc 80) was 66%, the “% inhibition Apol 40'” value (DRC-2, 40', conc 2.5) was 4.3% and the “% inhibition Apol 40'” value (DRC-2, 40', conc 5) was 27%. For the same compound, the “% inhibition Apol 40'” value (DRC-2, 40', conc 10) was 47%, the “% inhibition Apol 40'” value (DRC-2, 40', conc 20) was 62% and the “% inhibition Apol 40'” value (DRC-2, 40', conc 40) was 75%. For the same compound, the “% inhibition Apol 40'” value (DRC-2, 40', conc 80) was 80%, the “% inhibition ApPOL 90'” value (DRC-2, 90', conc 2.5) was 1.26% and the “% inhibition ApPOL 90'” value (DRC-2, 90', conc 5) was 23%. For the same compound, the “% inhibition ApPOL 90'” value (DRC-2, 90', conc 10) was 42%, the “% inhibition ApPOL 90'” value (DRC-2, 90', conc 20) was 60% and the “% inhibition ApPOL 90'” value (DRC-2, 90', conc 40) was 77%. For the same compound, the “% inhibition ApPOL 90'” value (DRC-2, 90', conc 80) was 82%, the “% inhibition apPOL 180'” value (DRC-2, 180', conc 2.5) was -2.17% and the “% inhibition apPOL 180'” value (DRC-2, 180', conc 5) was 12%. The “% inhibition apPOL 180'” value (DRC-2, 180', conc 10) was 31%, the “% inhibition apPOL 180'” value (DRC-2, 180', conc 20) was 53% and the “% inhibition apPOL 180'” value (DRC-2, 180', conc 40) was 78%. For the same compound, the “% inhibition apPOL 180'” value (DRC-2, 180', conc 80) was 85% and the “DNA Pol” value (primary screen value, "DNA Pol") was 42.
